Data taken from patent US8629116B2, “Method for inducing a TRIF-bias” (priority 2008, dated 2014).
Like-named read-outs stand apart in the source and are kept apart here.

Columns and labels:
Type in all cases: cell-based
[1] = system: human peripheral blood mononuclear cells (PBMCs); test: Cytokine/chemokine induction in fresh human PBMCs
Method: (§1) Peripheral blood mononuclear cells (PBMCs) are isolated from the blood of healthy donors via a Ficoll Hypaque 1.077 gradient and treated with agonists or are used to isolate adherent monocytes in monocyte media (RPMI 1640 (ATCC), 10% human AB serum (Lonza/BioWhittaker), 100 U/mL penicillin/100 ug/mL streptomycin (Sigma), 50 uM 2-mercaptoethanol (Sigma) as described (Stover et al. 4440-49; Kawai et al. 5887-94; Gervassi et al. 7231-39). Monocyte-derived macrophages are produced by incubating adherent monocytes for 5 days in monocyte media with 50 ng/mL rhM-CSF (R&D Systems) with media changes at day 3 and day 5 before agonist treatment. Monocyte-derived dendritic cells (DC) are produced by incubating adherent monocytes for 7 days in monocyte media with 10 ng/mL rhGM-CSF and 10 ng/mL rhIL-4 (R&D Systems) with media changes on day 3 and day 6.
Expression of TNFα and MIP-1α are dependent upon signaling through the TLR4 adaptor, MyD88, while expression of IP-10 and RANTES are dependent upon signaling through the TLR4 adaptor, TRIF/TICAM-1 (Hoebe et al, Kawai et al).

[2] = system: human monocyte-derived dendritic cells; test: IL-12p70 and IL-23 induction in human monocyte-derived dendritic cells
Method: as §1
Induction of inflammatory cytokines and maturation of dendritic cells (DC) contribute to the promotion of a robust immune response during the administration of an adjuvanted vaccine. Therefore, the capacity of CRX527 and CRX-547 to induce IL-12p70 in human DCs is compared. The induction of IL-12p70 promotes the development of the Th1 helper T cell lineage and favors development of a cell-mediated immune response (Goriely, Neurath, and Goldman 81-86; Gutcher and Becher 1119-27). […]

[3] = molecular target: T1, TLR4 receptor complex (Homo sapiens, UniProt O00206+Q9Y6Y9); test: Inhibition of CRX-527- or LPS-induced cytokines by CRX-547 in primary human adherent monocytes; details: for IC50: added simultaneously
T1 construct: endogenous in cells; host or cells: primary human adherent monocytes isolated from PBMCs of healthy donors
T1 sequence (O00206 24-839): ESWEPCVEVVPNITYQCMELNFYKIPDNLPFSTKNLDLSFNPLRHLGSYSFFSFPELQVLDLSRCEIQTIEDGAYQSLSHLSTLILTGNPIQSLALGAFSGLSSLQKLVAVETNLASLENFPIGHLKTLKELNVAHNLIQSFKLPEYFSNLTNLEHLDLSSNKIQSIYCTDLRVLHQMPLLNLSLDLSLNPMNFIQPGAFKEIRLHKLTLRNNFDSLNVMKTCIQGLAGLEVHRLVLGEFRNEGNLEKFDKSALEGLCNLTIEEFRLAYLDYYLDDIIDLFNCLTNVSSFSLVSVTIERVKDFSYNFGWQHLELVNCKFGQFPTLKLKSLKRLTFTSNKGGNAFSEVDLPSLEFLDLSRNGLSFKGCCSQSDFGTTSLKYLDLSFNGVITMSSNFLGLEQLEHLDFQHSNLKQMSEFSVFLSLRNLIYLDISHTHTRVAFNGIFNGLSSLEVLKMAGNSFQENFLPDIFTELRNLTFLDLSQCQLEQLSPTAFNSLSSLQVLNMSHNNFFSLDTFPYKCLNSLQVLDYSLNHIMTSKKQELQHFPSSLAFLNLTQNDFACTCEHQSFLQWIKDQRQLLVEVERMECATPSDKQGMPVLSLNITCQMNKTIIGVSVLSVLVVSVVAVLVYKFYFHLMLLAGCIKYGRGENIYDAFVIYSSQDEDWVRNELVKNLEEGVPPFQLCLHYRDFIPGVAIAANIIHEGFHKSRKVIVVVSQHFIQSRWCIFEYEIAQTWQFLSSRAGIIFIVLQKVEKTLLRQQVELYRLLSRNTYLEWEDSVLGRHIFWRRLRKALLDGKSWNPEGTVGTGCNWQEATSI
T1 sequence (Q9Y6Y9 19-160): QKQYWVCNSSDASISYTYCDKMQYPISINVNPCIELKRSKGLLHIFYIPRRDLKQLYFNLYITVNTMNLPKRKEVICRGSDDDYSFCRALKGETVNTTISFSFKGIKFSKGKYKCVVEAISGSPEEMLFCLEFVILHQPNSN
Method: as §1
CRX-527 signals through the TLR4/MD2 receptor complex leading to activation of transcription factors that lead to induction of cytokines and chemokines. […] (FIG. 10).
To that end, human primary monocytes are treated with a dose range of CRX-527 in the presence of increasing concentrations of CRX-547.
The resulting dose-response curves are fit with a 4 parameter logistic equation.
Plotting the log EC50 shift (DR-1) for each concentration of CRX-547 versus the log of the concentration of CRX-547 (Schild regression) allows us to compare the calculated affinity (Kbapp) with the EC50 for CRX-547 calculated from the CRX-547 and CRX-527 dose-response curve. […] (FIG. 10B.)

[4] = molecular target: T2, muTLR4, muMD-2, and muCD14 (Mus musculus, UniProt Q9JHF9+Q9QUK6); test: NFκB reporter activity in HEK293 cells transfected with muTLR4, muMD-2, muCD14; details: HEK293 muTLR4/muMD-2/muCD14
T2 construct: expressed in transfected cells; host or cells: HEK293
T2 sequence (Q9QUK6 26-835): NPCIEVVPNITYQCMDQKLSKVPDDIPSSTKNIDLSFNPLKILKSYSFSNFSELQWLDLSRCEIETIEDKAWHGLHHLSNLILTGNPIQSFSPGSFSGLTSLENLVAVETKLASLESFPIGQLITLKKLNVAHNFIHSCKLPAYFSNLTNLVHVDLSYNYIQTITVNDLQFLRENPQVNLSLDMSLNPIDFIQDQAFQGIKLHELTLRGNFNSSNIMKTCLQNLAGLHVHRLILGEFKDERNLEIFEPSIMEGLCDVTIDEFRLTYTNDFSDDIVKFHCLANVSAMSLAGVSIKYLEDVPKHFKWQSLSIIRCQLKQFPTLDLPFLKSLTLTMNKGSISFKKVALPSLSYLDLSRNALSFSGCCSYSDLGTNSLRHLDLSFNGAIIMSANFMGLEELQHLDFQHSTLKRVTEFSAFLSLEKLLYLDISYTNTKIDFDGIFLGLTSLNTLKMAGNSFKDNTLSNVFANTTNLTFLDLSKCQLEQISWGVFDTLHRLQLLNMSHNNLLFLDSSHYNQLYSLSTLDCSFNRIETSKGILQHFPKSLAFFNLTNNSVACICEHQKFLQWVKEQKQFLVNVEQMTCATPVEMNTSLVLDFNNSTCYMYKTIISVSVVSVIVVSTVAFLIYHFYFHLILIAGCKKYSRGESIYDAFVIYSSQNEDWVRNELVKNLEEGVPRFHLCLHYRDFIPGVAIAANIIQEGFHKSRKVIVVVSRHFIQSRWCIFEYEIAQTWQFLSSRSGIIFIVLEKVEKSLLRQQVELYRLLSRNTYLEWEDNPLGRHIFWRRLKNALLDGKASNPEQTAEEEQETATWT
T2 sequence (Q9JHF9 19-160): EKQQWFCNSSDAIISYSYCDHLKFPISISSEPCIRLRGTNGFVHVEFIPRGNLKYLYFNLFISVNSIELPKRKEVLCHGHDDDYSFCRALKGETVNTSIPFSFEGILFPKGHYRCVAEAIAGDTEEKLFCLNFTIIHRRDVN

[5] = compared among LPS, CRX-527, CRX-547

CCCCCCCCCCCC(CC(=O)NC(COC1OC(CO)C(OP(=O)(O)O)C(OC(=O)CC(CCCCCCCCCCC)OC(=O)CCCCCCCCC)C1NC(=O)CC(CCCCCCCCCCC)OC(=O)CCCCCCCCC)C(=O)O)OC(=O)CCCCCCCCC.CCN(CC)CC (stereo not shown) [CRX-547]
induction of MIP-1α (MyD88-dependent) [1, 5]: significantly lower levels | induction of TNFα (MyD88-dependent) [1, 5]: significantly lower levels | induction of IP-10 (TRIF-dependent) ([1]; relative to CRX-527 and LPS): comparable levels | induction of RANTES (TRIF-dependent) ([1]; relative to CRX-527 and LPS): comparable levels | IL-23 expression ([2]; dendritic cells, compared with CRX-527): reduced virtually to base-line levels | IL-12p70 response ([2]; human monocyte-derived DC, compared to CRX-527 and LPS): significantly reduced | effect of CRX-547 on MCP-1 (TRIF-dependent) induction by fixed CRX-527 or LPS ([3]; at higher concentrations of CRX-547): increased additively | IC50 ([3]; fixed CRX-527 100 nM, read-out: IC50 for inhibition of TNFα induction by CRX-527): 48 ± 30 nM | IC50 ([3]; fixed LPS 100 nM, read-out: IC50 for inhibition of TNFα induction by LPS): 18 ± 12 nM | effect of CRX-547 on TNFα induction by fixed concentration of CRX-527 or LPS ([3]; increasing CRX-547 added prior to CRX-527 or LPS): inhibited | agonist character for induction of MyD88-dependent cytokines/chemokines ([3]; relative to CRX-527 and LPS, monocytic cells): partial agonist | Kd ([3]; shift of CRX-527-induced TNFα dose-response curves, read-out: affinity estimate (Kbapp) by Schild regression): 0.33 nM | NFκB reporter activity [4]: more similar to CRX-527 and LPS
